Source: patent US12139487B2, “Compounds and uses thereof” (Foghorn Therapeutics Inc., priority 2022, dated 2024)

Experiments:
[1] = molecular target: T1, BRM (Homo sapiens, UniProt P51531); assay: ATPase catalytic activity assay (ADP-Glo), BRM; type: biochemical; conditions: Table 10; for Ratio (BRG1 IC50 (μM) divided by BRM IC50 (μM)): ATPase assay, selectivity BRG1/BRM; for IC50: ATPase catalytic activity assay (ADP-Glo)
T1 construct: made in house; host or cells: High Five insect cells
How it was run: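 Reaction holds 30 nM BRM, 20 nM salmon sperm DNA and 400 μM ATP in 20 mM Tris pH 8, 20 mM MgCl2, 50 mM NaCl, 0.1% Tween-20, 1 mM DTT. Incubated 1 h at room temperature. ADP formed is detected by ADP-Glo luminescence.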

[2] = molecular target: T2, BRG-1 (Homo sapiens, UniProt P51532); assay: ATPase catalytic activity assay (ADP-Glo), BRG-1; type: biochemical; conditions: Table 10, read-out: BRG1 IC50
T2 construct: made in house; host or cells: High Five insect cells
How it was run: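 Signal reflects ADP produced by the enzyme, quantified as luminescence after unused ATP is cleared and ADP is reconverted to ATP for the luciferase reaction; both steps run at room temperature, 40 and 60 min respectively.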

T1 sequence (P51531 whole entry): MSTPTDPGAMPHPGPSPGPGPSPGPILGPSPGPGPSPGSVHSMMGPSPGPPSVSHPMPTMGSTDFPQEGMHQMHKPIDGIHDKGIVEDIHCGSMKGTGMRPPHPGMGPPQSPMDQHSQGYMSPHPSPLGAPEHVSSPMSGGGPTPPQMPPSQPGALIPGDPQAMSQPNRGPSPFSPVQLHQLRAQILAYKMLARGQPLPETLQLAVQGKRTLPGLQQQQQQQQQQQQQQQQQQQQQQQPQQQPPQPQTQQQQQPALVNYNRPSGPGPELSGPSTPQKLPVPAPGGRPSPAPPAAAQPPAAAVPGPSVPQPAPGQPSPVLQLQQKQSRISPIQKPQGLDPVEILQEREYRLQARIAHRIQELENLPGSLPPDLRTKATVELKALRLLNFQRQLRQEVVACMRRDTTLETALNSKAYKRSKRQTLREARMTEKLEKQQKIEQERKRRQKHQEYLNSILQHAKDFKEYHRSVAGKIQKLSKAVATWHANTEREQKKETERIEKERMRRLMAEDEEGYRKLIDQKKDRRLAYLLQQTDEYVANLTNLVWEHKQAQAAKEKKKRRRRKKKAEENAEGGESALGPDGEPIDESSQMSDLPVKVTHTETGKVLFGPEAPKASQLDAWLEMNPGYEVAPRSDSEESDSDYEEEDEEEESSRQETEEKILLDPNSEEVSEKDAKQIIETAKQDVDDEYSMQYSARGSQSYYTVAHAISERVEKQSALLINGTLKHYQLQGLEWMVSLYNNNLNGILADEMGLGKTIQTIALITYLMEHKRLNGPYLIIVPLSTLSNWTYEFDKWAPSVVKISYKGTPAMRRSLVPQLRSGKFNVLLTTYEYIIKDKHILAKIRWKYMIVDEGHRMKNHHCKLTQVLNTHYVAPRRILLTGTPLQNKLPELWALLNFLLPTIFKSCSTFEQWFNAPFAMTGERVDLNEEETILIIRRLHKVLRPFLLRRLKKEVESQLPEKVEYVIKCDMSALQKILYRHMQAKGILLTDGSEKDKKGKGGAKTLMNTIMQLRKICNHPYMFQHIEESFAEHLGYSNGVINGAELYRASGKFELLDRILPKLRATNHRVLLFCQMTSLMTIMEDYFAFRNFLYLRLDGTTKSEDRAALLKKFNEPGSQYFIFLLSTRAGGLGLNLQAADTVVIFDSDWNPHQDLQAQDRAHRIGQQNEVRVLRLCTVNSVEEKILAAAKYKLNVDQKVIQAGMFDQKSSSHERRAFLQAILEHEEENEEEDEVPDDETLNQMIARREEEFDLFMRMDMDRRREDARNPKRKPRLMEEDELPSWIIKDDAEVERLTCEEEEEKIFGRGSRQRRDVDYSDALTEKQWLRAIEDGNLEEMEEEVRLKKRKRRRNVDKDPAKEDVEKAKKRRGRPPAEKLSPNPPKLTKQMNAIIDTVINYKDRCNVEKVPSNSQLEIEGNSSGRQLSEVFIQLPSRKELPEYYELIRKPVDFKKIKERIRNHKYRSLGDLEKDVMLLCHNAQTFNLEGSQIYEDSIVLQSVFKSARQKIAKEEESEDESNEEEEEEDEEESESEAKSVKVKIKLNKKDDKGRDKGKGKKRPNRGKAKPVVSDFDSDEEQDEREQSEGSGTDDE
T2 sequence (P51532 whole entry): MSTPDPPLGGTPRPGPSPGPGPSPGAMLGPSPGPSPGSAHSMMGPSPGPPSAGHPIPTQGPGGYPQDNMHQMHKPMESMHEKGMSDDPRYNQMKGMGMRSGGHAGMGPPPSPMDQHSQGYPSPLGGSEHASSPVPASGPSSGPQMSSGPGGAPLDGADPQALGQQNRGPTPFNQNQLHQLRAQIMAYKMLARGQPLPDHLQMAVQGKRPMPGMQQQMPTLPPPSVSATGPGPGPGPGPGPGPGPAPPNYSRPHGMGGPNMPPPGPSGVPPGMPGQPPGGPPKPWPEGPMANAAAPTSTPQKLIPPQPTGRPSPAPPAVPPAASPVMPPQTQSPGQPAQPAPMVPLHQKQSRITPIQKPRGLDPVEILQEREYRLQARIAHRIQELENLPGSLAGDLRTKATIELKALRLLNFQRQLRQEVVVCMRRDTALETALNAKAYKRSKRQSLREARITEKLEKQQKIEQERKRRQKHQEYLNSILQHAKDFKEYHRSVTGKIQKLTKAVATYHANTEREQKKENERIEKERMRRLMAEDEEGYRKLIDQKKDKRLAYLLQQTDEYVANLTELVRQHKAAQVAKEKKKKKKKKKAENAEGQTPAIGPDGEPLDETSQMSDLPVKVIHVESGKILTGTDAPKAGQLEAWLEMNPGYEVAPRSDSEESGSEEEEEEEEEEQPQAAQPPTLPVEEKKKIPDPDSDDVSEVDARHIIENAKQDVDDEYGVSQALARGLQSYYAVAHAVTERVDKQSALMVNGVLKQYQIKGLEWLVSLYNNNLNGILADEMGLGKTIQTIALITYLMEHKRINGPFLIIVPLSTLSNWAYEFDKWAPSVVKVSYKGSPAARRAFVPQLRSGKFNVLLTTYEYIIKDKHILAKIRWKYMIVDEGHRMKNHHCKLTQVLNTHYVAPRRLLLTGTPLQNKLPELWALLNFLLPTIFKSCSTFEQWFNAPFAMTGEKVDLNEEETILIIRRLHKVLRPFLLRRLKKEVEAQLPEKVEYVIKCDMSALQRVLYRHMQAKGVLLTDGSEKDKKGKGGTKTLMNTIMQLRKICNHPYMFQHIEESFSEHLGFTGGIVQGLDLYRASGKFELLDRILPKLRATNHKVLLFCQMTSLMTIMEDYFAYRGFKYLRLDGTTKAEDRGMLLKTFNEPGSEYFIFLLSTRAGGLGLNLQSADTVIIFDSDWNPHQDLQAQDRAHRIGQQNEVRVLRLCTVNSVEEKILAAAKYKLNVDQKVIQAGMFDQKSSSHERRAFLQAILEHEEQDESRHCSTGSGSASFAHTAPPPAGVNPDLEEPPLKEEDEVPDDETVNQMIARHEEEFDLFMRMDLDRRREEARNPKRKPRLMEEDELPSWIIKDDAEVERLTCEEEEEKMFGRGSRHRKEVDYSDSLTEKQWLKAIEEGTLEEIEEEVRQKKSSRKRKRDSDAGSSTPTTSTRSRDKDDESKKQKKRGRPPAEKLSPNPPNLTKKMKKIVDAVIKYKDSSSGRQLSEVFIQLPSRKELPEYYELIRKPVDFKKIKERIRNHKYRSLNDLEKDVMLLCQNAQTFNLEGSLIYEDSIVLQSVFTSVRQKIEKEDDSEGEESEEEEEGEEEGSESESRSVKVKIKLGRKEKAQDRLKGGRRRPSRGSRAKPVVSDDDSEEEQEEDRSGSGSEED

Row | Ratio (BRG1 IC50 (μM) divided by BRM IC50 (μM)) [1] | IC50 [1] [nM] | IC50 [2] [nM] | SMILES
1 | 20.37 | 3.1 | 69.9 | O=C(NCc1cc2nc(-c3ccc(OC(F)F)c(C4CC4)n3)ccc2cn1)c1cc(F)c2c(c1)S(=O)(=O)[C@@H](F)COC2 [Compound 85]
2 | 17.20 | 9.8 | 168 | O=C(NCc1cc2nc(N3CCCc4cc(C5COC5)cnc43)ccc2cn1)c1cc(F)c2c(c1)S(=O)(=O)[C@@H](F)CCO2 [Compound 293]
3 | 22.22 | 8.9 | 192 | C[C@@H](F)c1cnc2c(c1)OCCN2c1ccc2cnc(CNC(=O)c3cc(F)c4c(c3)S(=O)(=O)[C@@H](F)CCO4)cc2n1 [Compound 274]
4 | 18.66 | 10 | 175 | COc1nc(-c2ccc3cnc(CNC(=O)c4cc(Cl)c5c(c4)S(=O)(=O)[C@@H](F)COC5)cc3n2)ccc1C(F)F [Compound 301]
5 | 15.65 | 10.1 | 158 | O=C(NCc1cc2nc(N3CCOc4cc(F)c(C(F)F)nc43)ccc2cn1)c1cc(F)c2c(c1)S(=O)(=O)[C@@H](F)CCO2 [Compound 304]
6 | 21.77 | 1.7 | 39.1 | O=C(NCc1cc2nc(N3CCOc4ccc([C@H]5C[C@@H]5C(F)F)nc43)ccc2cn1)c1cc(F)c2c(c1)S(=O)(=O)[C@@H](F)COC2 [Compound 26]
7 | 14.89 | 1.3 | 22.3 | O=C(NCc1cc2nc(N3CCOc4cc(C5CC5)cnc43)ccc2cn1)c1cc(F)c2c(c1)S(=O)(=O)[C@@H](F)COC2 [Compound 8]
8 | 19.09 | 4.3 | 81.5 | O=C(NCc1cc2nc(N3CCOc4ccc([C@H]5C[C@@H]5C(F)F)nc43)ccc2cn1)c1cc(F)c2c(c1)S(=O)(=O)[C@@H](F)CCO2 [Compound 125]
9 | 14.72 | 5.1 | 100 | O=C(NCc1cc2nc(N3CCOc4cc(C(F)F)cnc43)ccc2cn1)c1cc(F)c2c(c1)S(=O)(=O)[C@@H](F)CCO2 [Compound 159]
10 | 9.50 | 1.4 | 14.2 | CCOc1ccnc2c1OCCN2c1ccc2cnc(CNC(=O)c3cc(F)c4c(c3)S(=O)(=O)[C@@H](F)COC4)cc2n1 [Compound 11]
11 | 17.61 | 2.5 | 36.8 | O=C(NCc1cc2nc(N3CCOc4ccc(N5CC[C@H](F)C5)nc43)ccc2cn1)c1cc(F)c2c(c1)S(=O)(=O)[C@@H](F)CCO2 [Compound 57]
12 | 11.37 | 5.9 | 66.5 | C[C@@H]1C[C@@H]1c1cnc2c(c1)OCCN2c1ccc2cnc(CNC(=O)c3cc(F)c4c(c3)S(=O)(=O)[C@@H](F)CCO4)cc2n1 [Compound 192]
13 | 16.05 | 4.8 | 77.2 | O=C(NCc1cc2nc(N3CCOc4cc(CC(F)F)cnc43)ccc2cn1)c1cc(F)c2c(c1)S(=O)(=O)[C@@H](F)CCO2 [Compound 145]
14 | 17.66 | 3.4 | 65.7 | CO[C@H]1CN(c2cccc(-c3ccc4cnc(CNC(=O)c5cc(F)c6c(c5)S(=O)(=O)[C@@H](F)CCO6)cc4n3)n2)C[C@@H]1F [Compound 97]
15 | 26.66 | 1.6 | 44.7 | C[C@H]1C[C@@H]1c1ccc2c(n1)N(c1ccc3cnc(CNC(=O)c4cc(F)c5c(c4)S(=O)(=O)[C@@H](F)CCO5)cc3n1)CCO2 [Compound 20]
16 | 21.12 | 4 | 83.9 | O=C(NCc1cc2nc(N3CCOc4c(OCC5CC5)ccnc43)ccc2cn1)c1cc(F)c2c(c1)S(=O)(=O)[C@@H](F)CCO2 [Compound 113]
17 | 10.33 | 4.1 | 42.2 | O=C(NCc1cc2nc(N3CCOc4ccc(N5CCC(F)(F)C5)nc43)ccc2cn1)c1cc(F)c2c(c1)S(=O)(=O)[C@@H](F)CCO2 [Compound 119]
18 | 16.84 | 5.8 | 107 | COCCOc1ccnc2c1CCCN2c1ccc2cnc(CNC(=O)c3cc(F)c4c(c3)S(=O)(=O)[C@@H](F)CCO4)cc2n1 [Compound 189]
19 | 21.43 | 4.7 | 98.5 | COc1nc(-c2ccc3cnc(CNC(=O)c4cc(F)c5c(c4)S(=O)(=O)[C@@H](F)CCO5)cc3n2)ccc1C(F)F [Compound 143]
20 | 17.08 | 5.1 | 86.7 | COc1cc(F)ccc1-c1ccc2cnc(CNC(=O)c3cc(F)c4c(c3)S(=O)(=O)[C@@H](F)CCO4)cc2n1 [Compound 158]
21 | 21.45 | 4.7 | 99.7 | COc1nc(C(F)F)ccc1-c1ccc2cnc(CNC(=O)c3cc(F)c4c(c3)S(=O)(=O)[C@@H](F)COC4)cc2c1 [Compound 137]
22 | 11.49 | 9.6 | 115 | C[C@@H]1CCN1c1cnc2c(c1)OCCN2c1ccc2cnc(CNC(=O)c3cc(Cl)c4c(c3)S(=O)(=O)[C@@H](F)COC4)cc2n1 [Compound 289]
23 | 29.29 | 9.9 | 295 | C[C@@H]1CCN1c1cnc2c(c1)OCCN2c1ccc2cnc(CNC(=O)c3cc(Br)c4c(c3)S(=O)(=O)[C@@H](F)CCO4)cc2n1 [Compound 299]
24 | 19.80 | 5 | 88 | O=C(NCc1cc2nc(-c3csnc3OC(F)F)ccc2cn1)c1cc(F)c2c(c1)S(=O)(=O)[C@@H](F)CCO2 [Compound 155]
25 | 25.34 | 8.5 | 242 | C[C@H](NC(=O)c1cc(F)c2c(c1)S(=O)(=O)[C@@H](F)CCO2)c1cc2nc(N3CCOc4cc(N5CCC5)cnc43)ccc2cn1 [Compound 261]
26 | 14.03 | 7.2 | 102 | C[C@@H]1CN(c2cccc(-c3ccc4nnc(CNC(=O)c5cc(Cl)c6c(c5)S(=O)(=O)[C@@H](F)CCO6)cc4c3)n2)C[C@H](C)O1 [Compound 231]
27 | 23.74 | 7.8 | 217 | O=C(NCc1cc2nc(N3CCOc4ccc(N5CC(F)C5)nc43)ccc2cn1)c1cc(F)c2c(c1)S(=O)(=O)[C@@H](F)CCO2 [Compound 246]
28 | 15.80 | 3.2 | 51.2 | [2H]C1([2H])Oc2c(F)cc(C(=O)NCc3cc4nc(N5CCOc6cc(C7CC7)cnc65)ccc4cn3)cc2S(=O)(=O)[C@]([2H])(F)C1([2H])[2H] [Compound 90]
29 | 29.13 | 4 | 118 | O=C(NCc1cc2nc(-c3cccc(C4CC4)n3)ccc2cn1)c1cc(F)c2c(c1)S(=O)(=O)[C@@H](F)COC2 [Compound 114]
30 | 12.04 | 4 | 48.3 | O=C(NCc1cc2nc(N3CCOc4cc([C@H]5CC5(F)F)cnc43)ccc2cn1)c1cc(F)c2c(c1)S(=O)(=O)[C@@H](F)COC2 [Compound 116]
